Measured values reported in patent US8835134B2, “Cycloastragenol monoglucoside, preparation, pharmaceutical composition and application thereof” (Tianjin Institute of Pharmaceutical Research, priority 2007, dated 2014).

System: anesthetized open-chest dogs
Experiment: Hemodynamics of anesthetized open-chest dogs, intravenous infusion
Format: in vivo, mongrel dogs
Conditions: 0.3 mg/kg iv
Procedure: The animals were anesthetized by intravenous injection of 30 mg/kg sodium pentobarbital, tracheally intubated, and mechanically ventilated with positive air pressure. Left thoracotomy was performed through the fourth intercostal space and the heart was suspended in a pericardial cradle, the aortic root was isolated and a probe of blood flow meter (12 or 14 mm in diameter) was fixed to measure the aortic blood flow as a representation of cardiac output (CO), the circumflex branch of left coronary artery was isolated and a probe of blood flow meter (2 or 2.5 mm in diameter) was fixed to measure the coronary blood flow (CBF). A polyethylene catheter filled with heparin physiological saline was inserted through cardiac apex into the left ventricle to measure the left ventricular pressure (LVP) and left ventricular end-diastolic pressure (LVEDP), Peak positive and peak negative first derivatives of the LVP (+ LVdp/dt and − LVdp/dt) were calculated with the Acknowledge software. The systolic blood pressure (SBP), diastolic blood pressure (DBP) and mean arterial pressure (MAP) were measured by polyethylene catheter via the femoral artery, ECG □ was measured by a AC-601G ECG amplifier. The above-mentioned analog signal was input into a data acquisition workstation (MP100, BIOPAC Systems, USA) to a computer running Acknowledge (version 3.7.1).
After surgery, various indexes before administration were recorded until the indexes were stable, and then intravenous infusion administration was conducted. Thirty dogs were divided into five groups (six dogs in each group), the experiment groups were given 0.15, 0.3, 0.6 mg/kg of ASP-[…] respectively, the normal control group was given 1 ml/kg of solvent, and the positive control group was given 0.3 mg/kg of astragaloside IV. The delivery volumes were 15 ml for each dog was and the delivery velocity was 1 ml/min. The indexes were recorded at 5, 10, 15, 20, 30, 45, 60, 90 and 120 mins after drug administration. At the end of experiment, the hearts were excised and weighted. The myocardial blood flow for per hectogram (CF), coronary resistance (CR), cardiac index (CI), left ventricular work (LVW) and total peripheral resistance (TPR) were calculated according to the following formulae: CF=CBF×[…]/heart weight CR=MAP/CF CI=CO/0.11×(body weight)^2/3 LVW=CO×(MAP−5)×1.052×0.0136 TPR=MAP×79.92/CO
Data are expressed as mean±SD ( x±s), the paired t-test was used to compare the significance between before and after administration, the unpaired t-test was adopted for comparison between groups.

CC(C)(O)[C@@H]1CC[C@](C)([C@H]2[C@@H](O)C[C@@]3(C)[C@@H]4C[C@H](O[C@@H]5O[C@H](CO)[C@@H](O)[C@H](O)[C@H]5O)[C@H]5C(C)(C)[C@@H](O[C@@H]6OC[C@@H](O)[C@H](O)[C@H]6O)CC[C@@]56C[C@@]46CC[C@]23C)O1 [astragaloside IV, reference compound]
TPR (30 min after administration): 5430 ± 1302 dyn · s/cm^5
TPR change vs before administration (30 min after administration): (206 ± 718) dyn · s/cm^5
dp/dt (30 min after administration): 1140 ± 92 mmHg/s
dp/dt change vs before administration (30 min after administration): (85 ± 84) mmHg/s
−dp/dt (30 min after administration): −807 ± 124 mmHg/s
−dp/dt change vs before administration (30 min after administration): (28 ± 160) mmHg/s
CF (45 min after administration): 54.0 ± 15.0 ml/min/100 g
CF change vs before administration (45 min after administration): (−2.9 ± 7.7) ml/min/100 g
CI (45 min after administration): 2.08 ± 0.52 L/min/m^2
CI change vs before administration (45 min after administration): (−0.06 ± 0.19) L/min/m^2
CO (45 min after administration): 1.17 ± 0.32 L/min
CO change vs before administration (45 min after administration): (−0.03 ± 0.10) L/min
CR (45 min after administration): 1.44 ± 0.50 mmHg/ml/min/100 g
CR change vs before administration (45 min after administration): (0.04 ± 0.25) mmHg/ml/min/100 g
LVEDP (45 min after administration): 0.9 ± 2.1 mmHg
LVEDP change vs before administration (45 min after administration): (−1.55 ± 1.42) mmHg
LVP (45 min after administration): 98 ± 10 mmHg
LVP change vs before administration (45 min after administration): (−4.5 ± 11.7) mmHg
LVW (45 min after administration): 1.14 ± 0.40 kg · m
LVW change vs before administration (45 min after administration): (−0.07 ± 0.11) kg · m
TPR (45 min after administration): 5301 ± 1638 dyn · s/cm^5
TPR change vs before administration (45 min after administration): (77 ± 552) dyn · s/cm^5
dp/dt (45 min after administration): 1124 ± 163 mmHg/s
dp/dt change vs before administration (45 min after administration): (69 ± 73) mmHg/s
−dp/dt (45 min after administration): −809 ± 137 mmHg/s
−dp/dt change vs before administration (45 min after administration): (26 ± 159) mmHg/s
CF (60 min after administration): 53.7 ± 18.1 ml/min/100 g
CF change vs before administration (60 min after administration): (−3.3 ± 5.1) ml/min/100 g
CI (60 min after administration): 2.10 ± 0.53 L/min/m^2
CI change vs before administration (60 min after administration): (−0.05 ± 0.11) L/min/m^2
CO (60 min after administration): 1.18 ± 0.34 L/min
CO change vs before administration (60 min after administration): (−0.02 ± 0.06) L/min
CR (60 min after administration): 1.51 ± 0.64 mmHg/ml/min/100 g
CR change vs before administration (60 min after administration): (0.10 ± 0.23) mmHg/ml/min/100 g
LVEDP (60 min after administration): 0.8 ± 1.7 mmHg
LVEDP change vs before administration (60 min after administration): (−1.57 ± 1.39) mmHg
LVP (60 min after administration): 98 ± 11 mmHg
LVP change vs before administration (60 min after administration): (−5.3 ± 15.3) mmHg
LVW (60 min after administration): 1.16 ± 0.47 kg · m
LVW change vs before administration (60 min after administration): (−0.05 ± 0.09) kg · m
TPR (60 min after administration): 5278 ± 1714 dyn · s/cm^5
TPR change vs before administration (60 min after administration): (54 ± 458) dyn · s/cm^5
dp/dt (60 min after administration): 1098 ± 192 mmHg/s
dp/dt change vs before administration (60 min after administration): (43 ± 77) mmHg/s
−dp/dt (60 min after administration): −788 ± 126 mmHg/s
−dp/dt change vs before administration (60 min after administration): (48 ± 177) mmHg/s
CF (90 min after administration): 57.4 ± 19.0 ml/min/100 g
CF change vs before administration (90 min after administration): (0.4 ± 9.5) ml/min/100 g
CI (90 min after administration): 2.15 ± 0.52 L/min/m^2
CI change vs before administration (90 min after administration): (0.01 ± 0.08) L/min/m^2
CO (90 min after administration): 1.21 ± 0.32 L/min
CO change vs before administration (90 min after administration): (0.00 ± 0.05) L/min
CR (90 min after administration): 1.43 ± 0.83 mmHg/ml/min/100 g
CR change vs before administration (90 min after administration): (0.02 ± 0.51) mmHg/ml/min/100 g
LVEDP (90 min after administration): 1.4 ± 0.5 mmHg
LVEDP change vs before administration (90 min after administration): (−0.97 ± 0.77) mmHg
LVP (90 min after administration): 99 ± 15 mmHg
LVP change vs before administration (90 min after administration): (−4.2 ± 18.7) mmHg
LVW (90 min after administration): 1.14 ± 0.44 kg · m
LVW change vs before administration (90 min after administration): (−0.07 ± 0.08) kg · m
TPR (90 min after administration): 4952 ± 1517 dyn · s/cm^5
TPR change vs before administration (90 min after administration): (−272 ± 349) dyn · s/cm^5
dp/dt (90 min after administration): 1100 ± 160 mmHg/s
dp/dt change vs before administration (90 min after administration): (45 ± 73) mmHg/s
−dp/dt (90 min after administration): −762 ± 139 mmHg/s
−dp/dt change vs before administration (90 min after administration): (74 ± 184) mmHg/s
CF (120 min after administration): 55.6 ± 19.7 ml/min/100 g
CF change vs before administration (120 min after administration): (−1.4 ± 11.1) ml/min/100 g
CI (120 min after administration): 2.14 ± 0.50 L/min/m^2
CI change vs before administration (120 min after administration): (0.00 ± 0.06) L/min/m^2
CO (120 min after administration): 1.20 ± 0.30 L/min
CO change vs before administration (120 min after administration): (0.00 ± 0.03) L/min
CR (120 min after administration): 1.51 ± 0.82 mmHg/ml/min/100 g
CR change vs before administration (120 min after administration): (0.11 ± 0.41) mmHg/ml/min/100 g
LVEDP (120 min after administration): 1.8 ± 0.8 mmHg
LVEDP change vs before administration (120 min after administration): (−0.66 ± 0.47) mmHg
LVP (120 min after administration): 97 ± 14 mmHg
LVP change vs before administration (120 min after administration): (−5.5 ± 19.3) mmHg
LVW (120 min after administration): 1.17 ± 0.45 kg · m
LVW change vs before administration (120 min after administration): (−0.04 ± 0.05) kg · m
TPR (120 min after administration): 5046 ± 1440 dyn · s/cm^5
TPR change vs before administration (120 min after administration): (−178 ± 394) dyn · s/cm^5
dp/dt (120 min after administration): 1088 ± 182 mmHg/s
dp/dt change vs before administration (120 min after administration): (33 ± 59) mmHg/s
−dp/dt (120 min after administration): −748 ± 167 mmHg/s
−dp/dt change vs before administration (120 min after administration): (88 ± 215) mmHg/s
CF (before administration): 57 ± 16.1 ml/min/100 g
CI (before administration): 2.14 ± 0.52 L/min/m^2
CO (before administration): 1.20 ± 0.32 L/min
CR (before administration): 1.40 ± 0.49 mmHg/ml/min/100 g
LVEDP (before administration): 2.4 ± 1.1 mmHg
LVP (before administration): 103 ± 12 mmHg
LVW (before administration): 1.21 ± 0.44 kg · m
TPR (before administration): 5224 ± 1465 dyn · s/cm^5
dp/dt (before administration): 1055 ± 157 mmHg/s
−dp/dt (before administration): −836 ± 194 mmHg/s
Heart rate (vs pre-administration): decreased slightly
blood pressure (vs pre-administration): no significant change
CF and CR (within 120 min): no significant changes
